For series [1], the system named is cancer cell lines. As to the kind of experiment: Live cell PWS of chromatin folding/heterogeneity (D, Σ). Type of series: cell-based. Particulars: for capacity to reduce chromatin folding (D↓, Σ↓): PWS on live cells; for chromatin heterogeneity Σ: within 30 min, p<0.01; for regulation of chromatin topology / heterogeneity: live cells, LC-PWS, within minutes of treatment where stated; for structural alteration of chromatin folding: five cell line models (A2780, M248, MDA-MB-231, MES-SA, MX2). The method, then: Test compounds were screened for CPT activity using live cell PWS imaging. Control and 30-60 minute CPT-treated cells were imaged with live cell PWS to determine their effect on nuclear nanoscale heterogeneity (See FIG. 11A for exemplary tested compounds). […]

Series [2] deals with pancreatic ductal carcinoma PDX model. As to the kind of experiment: In vivo validation of CPT on patient derived xenographs. The note with it: single agent treatment. The method, then:
The cell lines were treated with standard (IC50) doses of commonly used chemotherapy drugs (5-FU, Paclitaxel, Oxaliplatin, Docetaxel, Gemcitabine, FOLFIRI). […] Experiments were conducted during development of embodiments herein to test CPT in vivo on patient derived xenographs (PDX) of pancreatic ductal carcinoma (FIG. 15i).

The test system of series [3] is HeLa cells. As to the kind of experiment: Live cell PWS, mean nuclear Σ (chromatin nano-architecture). Type of series: cell-based. The method, then:
(§1) Prior to imaging, media within petri dishes was exchanged with fresh, RPMI-1640 Media (lacking phenol red pH indicator, purchased from Life Technologies) supplemented with 10% FBS (Sigma Aldrich, St. Louis Mo.). For DNA fragmentation experiments, live cell PWS images were acquired at room temperature (22° C.) and in trace CO2 (open air) conditions for cells subsequently stained with Hoechst 33342. During acquisition of time series data (UV and Controls, metabolic perturbation), cells were maintained at physiological conditions for the duration of the experiment. For imaging, a reference scattering spectra was obtained from an open surface of the substrate coverslip immersed in media prior to any cellular imaging to normalize the intensity of light scattered for each wavelength at each pixel. Σ is defined as the spectral standard deviation of our measured reflectance intensity normalized to this reference scattering spectra from the substrate-media interface. […] For Hoechst induced DNA damage experiments, significance was determined using Student's T-test with unpaired, unequal variance on nuclear Δ(Σ) between the conditions indicated in the experiment in both Mathematica v.10 and Microsoft Excel (Microsoft, Redmond, Wash.) with n=146 for Hoechst stained HeLa cells from 11 replicates and n=87 for Hoechst stained CHO cells from 5 replicates. […]

Series [4] deals with CHO cells. Described as above. In kind it is cell-based, Chinese Ovarian Hamster. The method, then: as §1
Series [5] has as its system HeLa cells. As to the kind of experiment: γ-H2A.X immunofluorescence (DNA fragmentation). Type of series: cell-based. Particulars: Hoechst-stained cells after UV excitation versus mock-stained. The method, then:
Co-registration of live cell PWS imaging and DNA strand damage using phospho-histone H2A.X was performed by immunofluorescent staining on three independent experiments. Cells were fixed for 20 min with 4% paraformaldehyde at room temperature, washed twice with phosphate buffered saline and a permeabilization/blocking step was performed with 0.1% Triton X-100 in 1% bovine serum albumin (Sigma Aldrich, St. Louis Mo.) for 20 min. Cells were again washed twice with PBS and then incubated with AlexaFluor 488 conjugated to anti-γH2A.X (serine 139 residue) rabbit monoclonal antibody (Cell Signaling, Beverly, […].) for 30 minutes. Following incubation with the antibody, cells were imaged using the FITC-EGFP filter on the live cell PWS microscope.

For the next series, the system named is MES-SA MX2. As to the kind of experiment: Cell survival by surface coverage (% inhibition). In kind it is cell-based. The note with it: Sarcoma MES-SA MX2.
The next series has as its system MES-SA. As to the kind of experiment: Cell survival by surface coverage (% inhibition). Particulars: Sarcoma MES-SA. In kind it is cell-based.
Series [6] deals with CHO cells. As to the kind of experiment: Mitochondrial membrane potential by TMRE flow cytometry. In kind it is cell-based, Chinese Ovarian Hamster. Particulars: 10 μM CCCP. The method, then: (§2) HeLa and CHO cells were grown and prepared for live cell imaging as previously described. Cell measurements for a single field of view were sequentially obtained for 3 minutes prior to treatment with CCCP. HeLa (n=31 from 6 independent experiments) and CHO (n=159 from 5 independent experiments) cells were treated with 10 μM for 15 minutes and imaged before and after treatment. Mock treated cells were incubated with 0.01% DMSO to account for the effect of DMSO solvent on the cells. […] Mitochondrial membrane potential ΔΨm was measured by flow cytometry (BD LSRII at the Northwestern Flow Cytometry Core) for tetramethylrhodamine (TMRE, purchased from Life Technologies, Carlsbad Calif.) stained cells. In brief, cells were trypsinized and immediately stained with 50 nM of TMRE for 30 minutes. Cells were washed twice with PBS after staining and suspended in 1 ml of PBS. CCCP treated cells were treated for 15 minutes to replicate conditions during live cell live cell PWS imaging. At least 20,000 cells were selected by forward and side scattering channels for each group, with a double elimination of doublets from the final analysis. Mean TMRE intensity from each replicate population was used for representative comparison between treated and untreated groups.
(A flow cytometer gives signals particle by particle.)

For series [7], the system named is HeLa cells. Described as above. In kind it is cell-based. Particulars: 10 μM CCCP. The procedure:
as §2

Another series relates to A2780.m248. As to the kind of experiment: Cell survival by surface coverage (% inhibition / cell death). In kind it is cell-based. Particulars: Ovarian A2780.m248; after 48 hours, surface coverage relative to control. The method, then:
These compounds were tested in combination with the chemotherapy drug paclitaxel.

The subject of series [8] is A2780.m248 ovarian cancer cells. As to the kind of experiment: Live cell PWS screen for CPT activity (mean nuclear sigma). Type of series: cell-based. The note with it: 30-60 minute treated cells.
The next series concerns A2780. As to the kind of experiment: Cell survival by surface coverage (% inhibition / cell death). The note with it: Ovarian A2780; after 48 hours, surface coverage relative to control.
The subject of series [9] is cancer cell lines. As to the kind of experiment: Single-cell sequencing of transcriptional heterogeneity. In kind it is cell-based. From the text:
Although partial regulation of folding is achieved through molecular-specific chromatin remodelers (Refs. 12c, 40c; incorporated by reference in their entireties) (CTCF, SWI/SNF, histone modifications), a more efficient global regulation is governed by physico-chemical mechanisms (FIG. 16). A cardiovascular drug digoxin provides one such example.

“Also recorded” adds a separate entry of the source.

Broadly, the % Inhibition is the percentage by which the read-out fell short of the control.

Turning to `O=C(O[C@@H]1Cc2c(O)cc(O)cc2O[C@@H]1c1cc(O)c(O)c(O)c1)c1cc(O)c(O)c(O)c1` [EGCG], in the series with cancer cell lines [1], the “capacity to reduce chromatin folding (D↓, Σ↓)” value is reported as “reduce chromatin folding”.
Regarding `Cn1cc(C2=C(c3coc4ccc(F)cc34)C(=O)NC2=O)c2cc3c(cc21)OCO3` [9-ING-41], the “capacity to reduce chromatin folding (D↓, Σ↓)” value in the series with cancer cell lines [1] was “reduce chromatin folding”. The “Σ / CPT strength in multiple cancer cell lines” value in the series on cancer cell lines [1] (colonic, pancreatic, ovarian, and mesothelioma lines) is given as “strong CPT; also recorded: decreases Σ”. The tumor size entry in series [2] is on record as “continued to expand in size”.
As for `CC1=C(CC(=O)O)c2cc(F)ccc2/C1=C\c1ccc([S+](C)[O-])cc1` (stereo not shown) [sulindac], the “chromatin heterogeneity Σ” value with cancer cell lines [1] is reported as “not”.
Consider `CC(=O)Oc1ccccc1C(=O)O` [aspirin], for which, in the series with cancer cell lines [1], the “capacity to reduce chromatin folding (D↓, Σ↓)” value is “reduce chromatin folding” and the “regulation of chromatin topology / heterogeneity” value is “potent regulators of chromatin topology; also recorded: global regulators of chromatin heterogeneity”.
As for `CCOc1ccc(-c2nc3ccc(-c4nc5ccc(N6CCN(C)CC6)cc5[nH]4)cc3[nH]2)cc1` [Hoechst 33342], the “decrease in mean-nuclear Σ” value in the series on HeLa cells [3] (Hoechst-stained, after a few seconds of UV exposure (excitation)) is reported as 17.01%. In addition, in the series on CHO cells [4] (Hoechst-stained, after UV exposure (excitation)), the “change (decrease) in mean-nuclear Σ” value is given as −7.1%. In addition, the γ-H2A.X antibody accumulation entry in the series on HeLa cells [5] is reported as “drastic accumulation”.
For the molecule `Nc1ccn([C@@H]2O[C@H](CO)[C@@H](O)C2(F)F)c(=O)n1` [gemcitabine], the tumor size result in series [2] is on record as “continued to expand in size”.
With `COc1cc(/C=C/C(=O)CC(=O)/C=C/c2ccc(O)c(OC)c2)ccc1O` [Curcumin], the “capacity to reduce chromatin folding (D↓, Σ↓)” value in the series on cancer cell lines [1] is recorded as “reduce chromatin folding”.
For `CC(=O)O[C@@]12CO[C@@H]1C[C@H](O)[C@@]1(C)C(=O)[C@H](O)C3=C(C)[C@@H](OC(=O)[C@H](O)[C@@H](NC(=O)OC(C)(C)C)c4ccccc4)C[C@@](O)([C@@H](OC(=O)c4ccccc4)[C@H]21)C3(C)C` [Docetaxel], the entries for the “% Inhibition” value with MES-SA MX2 and with MES-SA were 79% and 65%, respectively. In the series with cancer cell lines [1], the “structural alteration of chromatin folding” value was “increases”.
Regarding `N#CC(C#N)=NNc1cccc(Cl)c1` [CCCP, carbonyl cyanide m-chlorophenyl hydrazone], the “change in TMRE fluorescence” value with CHO cells [6] is recorded as “no significant change”. Moreover, the “regulation of chromatin topology / heterogeneity” value in the series with cancer cell lines [1] is “potent regulators of chromatin topology; also recorded: global regulators of chromatin heterogeneity”. In addition, the “decrease in mean-nuclear Σ” value in the series with HeLa cells [3] (10 μM CCCP, 15 minutes) amounted to 10%. Also, in the series on CHO cells [4] (10 μM CCCP, 15 minutes), the “change in mean-nuclear Σ” value is given as “no significant increase”. In the series on HeLa cells [7], the “decrease in TMRE fluorescence” value is reported as 10 fold and the “ΔΨm as gauged by TMRE fluorescence” value is listed as “rapidly lost ΔΨm”.
With `Cc1ccc(-c2cc(C(F)(F)F)nn2-c2ccc(S(N)(=O)=O)cc2)cc1` [Celecoxib], the “% Inhibition” value in the series with A2780.m248 is 0%. For the same molecule, in the series with cancer cell lines [1], the “capacity to reduce chromatin folding (D↓, Σ↓)” value is on record as “reduce chromatin folding”; the “regulation of chromatin topology / heterogeneity” value is “homogenization of chromatin; also recorded: potent regulators of chromatin topology; also recorded: global regulators of chromatin heterogeneity”; the “chromatin heterogeneity Σ” value is “Σ↓”. Further, the mean nuclear sigma entry in series [8] is listed as “decrease in mean nuclear sigma”. Moreover, the “% Inhibition” value in the series with A2780 stood at 0%.
Regarding `CC(C)[C@@H]1NC(=O)[C@H](C)OC(=O)[C@@H](C(C)C)NC(=O)[C@@H](C(C)C)OC(=O)[C@H](C(C)C)NC(=O)[C@H](C)OC(=O)[C@@H](C(C)C)NC(=O)[C@@H](C(C)C)OC(=O)[C@H](C(C)C)NC(=O)[C@H](C)OC(=O)[C@@H](C(C)C)NC(=O)[C@@H](C(C)C)OC1=O` [valinomycin], in the series on cancer cell lines [1], the “capacity to reduce chromatin folding (D↓, Σ↓)” value is listed as “reduce chromatin folding” and the “regulation of chromatin topology / heterogeneity” value was “potent regulators of chromatin topology; also recorded: global regulators of chromatin heterogeneity”.
Regarding `CCCC(CCC)C(=O)O` [valproic acid], the “chromatin heterogeneity Σ” value in the series on cancer cell lines [1] is reported as “Σ↓”.
With `C[C@H]1O[C@@H](O[C@H]2[C@@H](O)C[C@H](O[C@H]3[C@@H](O)C[C@H](O[C@H]4CC[C@@]5(C)[C@H](CC[C@@H]6[C@@H]5C[C@@H](O)[C@]5(C)[C@@H](C7=CC(=O)OC7)CC[C@]65O)C4)O[C@@H]3C)O[C@@H]2C)C[C@H](O)[C@@H]1O` [Digoxin, digoxin], in the series on cancer cell lines [1], the “capacity to reduce chromatin folding (D↓, Σ↓)” value is “reduce chromatin folding”; the “structural alteration of chromatin folding” value is listed as “decreases chromatin folding”; the “regulation of chromatin topology / heterogeneity” value was “homogenization of chromatin; also recorded: potent regulators of chromatin topology; also recorded: global regulators of chromatin heterogeneity”; the “chromatin heterogeneity Σ” value was “Σ↓”. Further, the “chromatin D” value in the series with cancer cell lines [1] (cell culture, within 30 min after application) was “D↓”. Also, the “transcriptional divergence and heterogeneity” value with cancer cell lines [9] is “lower intracellular transcriptional divergence and intercellular heterogeneity”. Also, in series [8], the mean nuclear sigma entry was “decrease in mean nuclear sigma”.

Values taken from patent US20200217837A1, “CHROMATIN PROTECTIVE THERAPEUTICS AND CHROMATIN HETEROGENEITY” (Northwestern University, priority 2016, published 2020).
